According to US20260256922A1, “PRODRUGS USEFUL FOR REDUCING ANTHRACYCLINE CARDIOTOXICITY” (WAKE FOREST UNIVERSITY HEALTH SCIENCES, priority 2022, published 2026):

Test system: 4T1 mouse breast cancer cells
Experiment: LDH release cytotoxicity assay in 4T1 cells
Type: cell-based
Settings: 10 or 20 μM, 24 or 48 h, other than the lowest dose and shortest time
From the text: FIG. 8. Cytotoxicity of DOX and prodrugs in 4T1 mouse breast cancer cells.
DOX is a known cytotoxic agent used against 4T1 triple-negative breast cancer cells grown in culture or injected orthotopically into mouse mammary fat pads to initiate the development of tumors.^52,53 As an initial test to see if c1 could retain the cytotoxic properties of DOX toward tumor-forming 4T1 cells, we conducted LDH assays to assess cytotoxicity of DOX, c1 and c2 treatments.

## COc1cccc2c1C(=O)c1c(O)c3c(c(O)c1C2=O)C[C@@](O)(C(=O)CO)C[C@@H]3O[C@H]1C[C@H](NC(=S)OCc2ccc(B3OC(C)(C)C(C)(C)O3)cc2)[C@H](O)[C@H](C)O1 [c1]
  cytotoxicity (LDH release): comparable, sometimes less and sometimes more, toxicity relative to DOX
